# From patent US20260306460A1, “COMPOSITION FOR REMOVING AND INHIBITING SENESCENT CELLS, AND USES THEREOF” (LIFECEUTIX CO., LTD., priority 2023, published 2026)
# Assays:
# naturally aged mice = experiment: p16, MMP3, IL6 mRNA in liver of naturally aged mice (qRT-PCR), Example 15; assay type: in vivo, mouse; settings: untreated aged = 100%, 5 days; for p16 mRNA: LX-405 10 mg/kg ip, LX-801 100 mg/kg ip, LX-1102 100 mg/kg po, LX-1801 50 mg/kg ip, LX-2101 10 mg/kg ip, LX-3403 100 μg ip; for IL6 mRNA / MMP3 mRNA: doses as p16 mRNA
# Method: In the same manner as in Example 7-1 of WO2023-085787 A1, naturally aged mice were administered LX-405 (5% DMSO in PBS solution, 10 mg/kg, intraperitoneal administration), LX-801 (PBS, 100 mg/kg, intraperitoneal administration), LX-1102 (0.5% CMC-Na solution, 100 mg/kg, oral administration), LX-1801 (PBS, 50 mg/kg, intraperitoneal administration), LX-2101 (0.5% CMC-Na solution, 10 mg/kg, intraperitoneal administration), and LX-3403 (mouse anti-PD-1 antibody (BioXcell), 100 μg, intraperitoneal administration) for 5 days under the following conditions. The control group was administered only the solution in the same volume. After drug administration was completed, the method described in each Example below was performed. The mouse was sacrificed in the same manner as Example 7-2 and 7-6 of WO2023-085787 A1. Total RNA was extracted from liver tissue, and qRT-PCR was performed and analyzed using synthesized cDNA. […] The mRNA amounts of p16, MMP3, and IL6 after natural aging were induced were calculated as 100% and compared them with the mRNA amounts of p16, MMP3, and IL6 after treatment with the test compound. Furthermore, an open field test was performed to analyze aging-related frailty in mice using the same method as Example 7-7 of WO2023-085787 A1. […] The amount of activity evaluated after inducing aging was calculated as 100% and compared it with the amount of activity evaluated after treatment with the test compound.
# [1] = test system: naturally aged C57BL6J mice; experiment: p16 mRNA in organs of naturally aged mice, Example 21-2, Table 18; assay type: in vivo, mouse; settings: 22-month-old naturally aged mice, untreated aged = 100%
# Method: 22-month-old female C57BL6J mice (KRIBB Laboratory Animal Resource Center) were acclimated to the experimental environment for one week, after which the aged mice were randomly assigned to experimental and control groups. Eight-week-old, non-aged mice served as controls. LX-403 was mixed in a 10% ethanol solution of PEG400 and administered orally at a concentration of 25 mg/kg daily for 21 days, or administered to the skin, joints, or eyes at a concentration of 1 μM. LX-1801 was mixed in distilled water with 4% DMSO, 30% PEG300, and 5% Tween80 and administered to the skin, joints, or eyes at a concentration of 0.4 μM daily for 21 days. LX-2001 was mixed in PBS and administered to the skin, joints, or eyes at a concentration of […] daily for 21 days. LX-2002 was mixed in distilled water with 4% DMSO, 30% PEG300, and 5% Tween80 and administered to the skin, joints, or eyes at a concentration of 2 μM daily for 21 days. […] LX-2005 was mixed in distilled water with 4% DMSO, 30% PEG300, and 5% Tween80 and administered to the skin, joints, or eyes at a concentration of 90 μM daily for 21 days. LX-2007 was mixed in distilled water with 4% DMSO, 30% PEG300, and 5% Tween80 and administered to the skin, joints, or eyes at a concentration of 90 μM daily for 21 days. […] LX-3002 was mixed in distilled water with 4% DMSO, 30% PEG300, and 5% Tween80 and administered orally at a concentration of 10 mg/kg daily for 21 days. […] LX-5411 was mixed in 5% PBS and administered orally at a concentration of 10 mg/kg daily for 21 days or administered to the skin, joints, or eyes at a concentration of 3 μM. LX-5701 was mixed in PBS and administered orally at a concentration of 360 mg/kg daily for 21 days. LX-6807 was mixed in saline and administered intraperitoneally at a concentration of 1 mg/kg daily for 21 days. LX-2101 or LX-2102 was mixed in PBS solution with 5% DMSO and administered intraperitoneally at a concentration of 20 mg/kg or 10 mg/kg, respectively, daily for 21 days. The control group received only the solution in the same volume. After the end of drug administration, the methods described in each example below were performed.
# Mice were sacrificed, and RNA was extracted from each organ tissue using the same method as in Example 7-2 of WO2023-085787 A1. qRT-PCR was performed with the synthesized cDNA. […] The amount of p16 mRNA after aging was calculated as 100% and compared with the amount of p16 mRNA after test compound treatment.
SMILES,p16 mRNA (naturally aged mice),IL6 mRNA (naturally aged mice),MMP3 mRNA (naturally aged mice),"p16 mRNA (%), Brain [1] [%]","p16 mRNA (%), Eye [1] [%]","p16 mRNA (%), Femur [1] [%]","p16 mRNA (%), Heart [1] [%]","p16 mRNA (%), Kidney [1] [%]","p16 mRNA (%), Knee joint [1] [%]","p16 mRNA (%), Liver [1] [%]","p16 mRNA (%), Lung [1] [%]","p16 mRNA (%), Muscle [1] [%]","p16 mRNA (%), Skin [1] [%]","p16 mRNA (%), eWAT [1] [%]"
COC(=O)c1ccc([C@H]2c3[nH]c4ccccc4c3C[C@H](C(=O)OC)N2C(=O)CCl)cc1 [LX-405],76.9 (±6.8) %,73.6 (±7.4) %,64.7 (±11.5) %,–,–,–,–,–,–,–,–,–,–,–
S=C(N/N=C1\CCCc2cccnc21)N1CCN(c2ccccn2)CC1 [LX-801],69.4 (±6.9) %,71.1 (±1.8) %,76.5 (±4.2) %,–,–,–,–,–,–,–,–,–,–,–
"C[C@@H]1CC[C@@]23C[C@H](O)C(=O)[C@@]2(O)[C@]1(C)[C@H](OC(=O)CCl)C[C@@H](C1=CCn2c(=O)n(-c4ccccc4)c(=O)n2C1)[C@@H]3C [LX-1801, (2S,3aS,4S,5R,7R,8S,8aS,11R)-7-(1,3-Dioxo-2-phenyl-2,3,5,8-tetrahydro-1H-[1,2,4]triazolo[1,2-a]pyridazin-6-yl)-2,3a-dihydroxy-4,8,11-trimethyl-3-oxooctahydro-1H-4,8a-propanoazulen-5-yl 2-Chloroacetate]",77.4 (±5.2) %,56.8 (±19.3) %,47.1 (±15.6) %,–,–,–,–,–,–,–,–,–,–,–
"CC1(C)CC[C@]2(NC(=O)C(C)(F)F)CC[C@]3(C)[C@H](C(=O)C=C4[C@@]5(C)C=C(C#N)C(=O)C(C)(C)[C@@H]5CC[C@]43C)[C@@H]2C1 [LX-2101, Omaveloxolone]",62.5 (±13.1) %,64.1 (±8.8) %,53.6 (±14.3) %,62,62,61,78,46,75,62,54,82,80,42
"COC(=O)[C@]12CCC(C)(C)C[C@H]1[C@H]1C(=O)C=C3[C@@]4(C)C=C(C#N)C(=O)C(C)(C)[C@@H]4CC[C@@]3(C)[C@]1(C)CC2 [LX-2102, Bardoxolone methyl]",–,–,–,85,72,64,81,53,64,58,71,75,77,39
O=C1C2CCN(CC2)C1CNC(=O)C(F)(F)F (stereo not drawn) [LX-5701],–,–,–,71,63,70,72,42,66,34,58,64,75,51
